In patent publication EP2982745A1, “Method for expanding immune cells” (Johann Wolfgang Goethe-Universität, Frankfurt am Main, priority 2014, dated 2016):

Key:
NKL cell line = test: Proliferation assay of NKL cell line (cell counts); type: cell-based; details: IL-2/-15/SPV-106 (5µM); already after 3 days of culture; counted at 3, 6 and 10 days; n = 7; figure 1
Description: (§1) NKL cell line was grown in Iscove's Modified Dulbecco's Medium (IMDM-Lonza) supplemented with 20% fetal bovine serum and recombinant human interleukine 2 (IL-2, 100 U/ml). Proliferation assay was performed by culturing 2x10^5 NKL cells/ml (96 multiwell; Nunc Thermo Scientific) in 200 µl growth medium supplemented with IL-2 (100 U/ml); IL-2/-15 (10 ng/ml); or IL-2/-15/SPV-106 5µM. Cells were counted and culture medium was changed every three days. Primary NK cells were isolated from peripheral blood of healthy donors using different methods of NK cell isolation (such as Easy Sep Human NK Cell Enrichment Kit, Stem cell Technologies or Human NK Cell Negative Selection Kit, Miltenyi). Proliferation assay was performed by culturing 2x10^6 primary NK cells/ml (24 multiwell ) in 1 ml growth medium supplemented with IL-2 (100 U/ml)/IL-15 (10 ng/ml); or IL-2/-15/SPV-106 5µM. Cells were counted and culture medium was changed every three days. Average of relative cell counts was determined microscopically using Trypan blue staining to exclude death or damaged cells.
NKL cells were cultured in growth medium for 10 days in presence of IL-2, IL-2/-15, or IL-2/-15/SPV-106 (5µM). SPV-106 is the selective activator of histone acetylase PCAF. At 3, 6 and 10 days cells were counted. Average cell number (x 10^4) is shown in the graph of figure 1 (n = 7 at each time point). […]

K562 target cells = test: Europium release cytotoxicity assay of expanded NK cells; type: cell-based, human; details: NK cells expanded by cytokines and 5µM SPV-106; E/T ratios 2.5:1, 5:1, 10:1; 4 h; figure 4
Source text: Effector cells were generated prepared as described above. As target cells, K562, a human chronic myelogenous leukemia cell line, […], were maintained in culture in RPMI 1640 medium supplemented with 10% fetal bovine serum. The medium was changed three times a week, and the cells were in the log phase of growth when used as targets in cytotoxicity assays. About 5 x10^6 target cells were washed in saline to reduce extracellular Ca^+2 content. The cell pellet was resuspended in 1 ml of labeling buffer supplemented with […] Eu(DH3C00)^3+, 100 mM DTPA, and 0.5 mg of dextran sulfate. This cell suspension was incubated for 20 min at room temperature with occasional shaking. The labeling process was stopped by the addition of […] of 100 mM CaCl2 solution per ml. After 5 min of continued incubation, the cells were washed three times in 30 ml of repair buffer and then one to two times in 10 ml of medium and were finally resuspended in CM at a concentration of 5 x 10^4 cells/ml. […] The percentage of specific cytotoxicity was calculated as follows: ((experimental release (counts)-spontaneous release (counts)) : (maximal release (counts)-spontaneous release (counts)) x 100.
Killing activity of K562 target cells was assessed by Europium Assay as described in the following Material and Methods section.

Primary NK cells [1] = test: Proliferation assay of primary NK cells (relative cell counts, Trypan blue); type: cell-based, human; details: IL-2/-15/SPV-106 at 5 µM; after 10 days of culture; n = 3; figure 2
Description: as §1
Primary NK cells isolated from peripheral blood were cultured in growth medium for 10 days in presence of IL-2/-15, or IL-2/-15/SPV-106 (5µM). At 3, 6 and 10 days cells were counted. Average of relative cell counts in comparison of 100% at day 0 is shown in the graph of figure 2 (n = 3 at each time point).

Primary NK cells [2] = test: NK cell subset distribution during expansion (flow cytometry); type: cell-based, human; details: IL-2/-15/SPV-106 at 5µM; 3, 6 and 10 days; n = 3; figure 3
Description: as §1
Primary NK cells were cultured in growth medium for 10 days in presence of IL-2/-15, IL 2/-15, or IL-2/-15/ SPV-106 (at 5µM). At 3, 6 and 10 the NK cell subset distribution (CD56^high : CD56^dim) was analysed by flow cytometry. Average of the NK cell subset ratio is shown in the graph of figure 3 (n = 3 at each time point).

With `CCCCCCCCCCCCCCC=C(C(=O)OCC)C(=O)OCC` [SPV-106] the “NKL cell line proliferation (average cell number)” value (NKL cell line) was “enhances NKL cell line proliferation”, the “cytotoxic capacity (killing activity of K562 target cells)” value (K562 target cells) was “retained cytotoxic capacity” and the “primary NK cell proliferation (average of relative cell counts in comparison of 100% at day 0)” value (Primary NK cells [1]) was “enhances primary NK cell proliferation”. The “NK cell subset distribution (CD56^high : CD56^dim)” value (Primary NK cells [2]) was “did not change the naturally occurring NK subset distribution”.
